Reference: patent US4749710A, “Immunosuppressive agents” (priority 1985, dated 1988)
Read-outs that look alike come from different tables or passages of the source.

Experiments:
Type in all cases: cell-based
cultured murine cells = assay: Viability / viable cell recovery of cultured murine cells (trypan blue dye exclusion); conditions: immunosuppressive concentrations
Method: (§1) Murine cytotoxic T-lymphocytes were generated in mixed leukocyte cultures by known methods. Specifically, single cell suspensions were prepared from spleens by gentle disruption in balanced salt solution (Hanks' balanced salt solution supplemented to 10%, v/v, with fetal bovine serum). After sedimentation on ice to remove particulate debris, cell suspensions were centrifuged at 400xg and were resuspended in fresh balanced salt solution. Cells to be used as stimulator cells were precluded from proliferating or generating cytotoxic T-lymphocytes by exposure to 1000 rads of gamma irradiation using a ^137 cesium source. […] Unless otherwise indicated, mixed leukocyte cultures were incubated at 37° C. for 6 days in a humidified atmosphere of 5% CO2 in air. The murine cytotoxic T-lymphocyte assay was conducted as follows. […] Cell pellets were resuspended in tissue culture medium and viable cells were enumerated by microscopy after exposure to trypan blue. Percent viability was calculated according to the formula: [formula] During the mixed leukocyte culture phase of the murine tests, three each of medium control and vehicle control cultures were included; each being assayed separately for cell viability and CTL activity. Unless otherwise indicated, single cultures were used to test for the effect of a particular concentration of any Vitamin D derivative. Moreover, cell viability was generally assessed only from control cultures; the resultant mean values being used to prepare desired viable effector cell concentrations from all cultures. The results for control cultures are expressed as the mean from replicate mixed leukocyte cultures±standard deviation thus establishing the between-culture variability inherent to any particular experiment. That changes in CTL activity were compound-induced was evidenced by dose-dependent changes in CTL activity measured from single cultures which exceeded the variability of the test system. […] The data shown in Table II below address this point. […] | ^b The viability of cells from each culture was determined by trypan

[1] = as above; conditions: mouse, trypan blue exclusion
Method: as §1

[2] = test system: murine cytotoxic T-lymphocyte responses; assay: cells; conditions: for CTL activity (% specific ^51 Cr release): 90:1 effector to target
Text: Immunosuppressive Activity of Vitamin D compounds on cytotoxic T lymphocyte Responses-General Test Description
Cytotoxic thymus-derived lymphocytes (CTL) constitute an important aspect of immune function and, as a result, play a key role in the rejection of grafted cells, tissues and organs. It is, therefore, essential to suppress CTL generation in a clinical situation in which CTL function is antithetical to the desired outcome as, for example, in transplantation. Cytotoxic T-lymphocytes have been studied for several years by many investigators and methods to evaluate CTL responses in vitro are well established.
As described below, CTL responses as affected by Vitamin D derivatives, were studied in vitro using cells from lab animals and human volunteers. Cytotoxic T-lymphocytes were generated from responder lymphoid cells in tissue culture medium during an incubation period of 6 days by exposure to foreign stimulator cells, i.e. from a genetically disparate source. A portion of the resultant effector cells were CTL capable of killing fresh cells related to the stimulator cells employed in the 6 day culture. To detect killing of cells by CTL, fresh target cells were incubated in excess ^51 chromium (as sodium chromate) until they were extensively labelled. Since target cells will retain the internalized radioisotope as long as they are viable but release the label when they are killed, CTL activity was assessed by quantitating the chromium released from target cells after a 4 or 18 hour incubation with CTL. Immunosuppression produced by Vitamin D derivatives was gauged as the ability to inhibit CTL responses during the initial incubation period relative to control cultures to which no Vitamin D derivative was added.
Female BALB/c By and C57BL/6 mice were obtained from Jackson Laboratories and were used between 8 and 10 weeks of age. Mice were given food and water ad libitum and were kept in a 12 hour light and 12 hour dark cycle.
For murine cultures, minimal essential medium with Hank's salts was supplemented to 1 millimolar with sodium pyruvate, to 0.1 millimolar with nonessential amino acids, to 2 millimolar with 1-glutamine, to 10% (v/v) with heat-inactivated fetal bovine serum, to 50 micrograms per ml with gentamicin, and to 1000 milligrams per liter with sodium bicarbonate and was used as tissue culture medium.
Stock solutions of Vitamin D derivatives were made in argon-saturated ethanol at a final concentration of 1×10^-2 molar, were covered with argon before sealing and were stored at -20° C. in the dark. Reduced lighting conditions were always employed when working with compounds. Compounds were diluted in tissue culture medium to 1×10^-4 molar and all subsequent dilutions were done in tissue culture medium containing 1% v/v ethanol. The final dilution into culture vessels was 1:10 thus keeping the vehicle concentration constant at 0.1% while varying the concentration of compound as tabulated in the results. For purposes of control, mixed leukocyte cultures were incubated in medium only (medium control) or in medium containing a final concentration of 0.1% ethanol (vehicle control).
Murine cytotoxic T-lymphocytes were generated in mixed leukocyte cultures by known methods. Specifically, single cell suspensions were prepared from spleens by gentle disruption in balanced salt solution (Hanks' balanced salt solution supplemented to 10%, v/v, with fetal bovine serum). After sedimentation on ice to remove particulate debris, cell suspensions were centrifuged at 400xg and were resuspended in fresh balanced salt solution. Cells to be used as stimulator cells were precluded from proliferating or generating cytotoxic T-lymphocytes by exposure to 1000 rads of gamma irradiation using a ^137 cesium source. […]

Compound: C=C1/C(=C\C=C2/CCC[C@]3(C)[C@@H]([C@H](C)/C=C/[C@H](C)C(C)(C)O)CC[C@@H]23)C[C@@H](O)C[C@@H]1O [1α,25-(OH)2 --D2, 1α,25-Dihydroxyergocalciferol]
- toxicity to cultured murine cells (in words) (cultured murine cells): not toxic to cultured murine cells
- viability at 0.0001 µM [1]: 57%
- viability at 0.001 µM [1]: 58%
- viability at 0.01 µM [1]: 57%
- viability at 0.1 µM [1]: 57%
- viability at 1 µM [1]: 57%
- suppression of murine cytotoxic T-lymphocyte responses (in words) [2]: suppress murine cytotoxic T-lymphocyte responses
- inhibition at 10 µM ([2]; Mus musculus, T-lymphocyte, Table I, 1 × 10^-5 molar, vs vehicle control, read-out: Inhibition of CTL activity (%)): 91%
- inhibition at 1 µM ([2]; Mus musculus, T-lymphocyte, Table I, 1 × 10^-6 molar, vs vehicle control, read-out: Inhibition of CTL activity (%)): 63%
- inhibition at 0.1 µM ([2]; Mus musculus, T-lymphocyte, Table I, 1 × 10^-7 molar, vs vehicle control, read-out: Inhibition of CTL activity (%)): 48%
- inhibition at 0.01 µM ([2]; Mus musculus, T-lymphocyte, Table I, 1 × 10^-8 molar, vs vehicle control, read-out: Inhibition of CTL activity (%)): 40%
- inhibition at 0.001 µM ([2]; Mus musculus, T-lymphocyte, Table I, 1 × 10^-9 molar, vs vehicle control, read-out: Inhibition of CTL activity (%)): 20%
- inhibition at 0.0001 µM ([2]; Mus musculus, T-lymphocyte, Table I, 1 × 10^-10 molar, vs vehicle control, read-out: Inhibition of CTL activity (%)): 3%
- inhibition at 1 µM ([2]; Mus musculus, T-lymphocyte, Table II, 1 × 10^-6 molar, vs vehicle, read-out: Inhibition of CTL activity (%)): 56%
- inhibition at 0.1 µM ([2]; Mus musculus, T-lymphocyte, Table II, 1 × 10^-7 molar, vs vehicle, read-out: Inhibition of CTL activity (%)): 56%
- inhibition at 0.01 µM ([2]; Mus musculus, T-lymphocyte, Table II, 1 × 10^-8 molar, vs vehicle, read-out: Inhibition of CTL activity (%)): 37%
- inhibition at 0.001 µM ([2]; Mus musculus, T-lymphocyte, Table II, 1 × 10^-9 molar, vs vehicle, read-out: Inhibition of CTL activity (%)): 20%
- inhibition at 0.0001 µM ([2]; Mus musculus, T-lymphocyte, Table II, 1 × 10^-10 molar, vs vehicle, read-out: Inhibition of CTL activity (%)): 20%
- CTL activity (% specific ^51 Cr release) ([2]; Table I, 1 × 10^-5 molar): 5 % specific ^51 Cr release
- CTL activity (% specific ^51 Cr release) ([2]; Table I, 1 × 10^-6 molar): 20 % specific ^51 Cr release
- CTL activity (% specific ^51 Cr release) ([2]; Table I, 1 × 10^-7 molar): 28 % specific ^51 Cr release
- CTL activity (% specific ^51 Cr release) ([2]; Table I, 1 × 10^-8 molar): 32 % specific ^51 Cr release
- CTL activity (% specific ^51 Cr release) ([2]; Table I, 1 × 10^-9 molar): 43 % specific ^51 Cr release
- CTL activity (% specific ^51 Cr release) ([2]; Table I, 1 × 10^-10 molar): 52 % specific ^51 Cr release
- CTL activity (% specific ^51 Cr release) ([2]; Table II, 1 × 10^-6 molar): 21 % specific ^51 Cr release
- CTL activity (% specific ^51 Cr release) ([2]; Table II, 1 × 10^-7 molar): 21 % specific ^51 Cr release
- CTL activity (% specific ^51 Cr release) ([2]; Table II, 1 × 10^-8 molar): 30 % specific ^51 Cr release
- CTL activity (% specific ^51 Cr release) ([2]; Table II, 1 × 10^-9 molar): 38 % specific ^51 Cr release
- CTL activity (% specific ^51 Cr release) ([2]; Table II, 1 × 10^-10 molar): 38 % specific ^51 Cr release
